Measured values from patent US20260200946A1, “KRAS(G12V) INHIBITORS” (Ranok Therapeutics (Hangzhou) Co. Ltd., priority 2022, published 2026).

Tests used:
KRAS(G12V)/SOS1 = target: T1, KRAS(G12V)/SOS1 (Homo sapiens, UniProt P01116, G12V); experiment: KRAS(G12V)/SOS1 homogeneous time-resolved fluorescence (HTRF) assay; type: binding; details: absence of GTP; 4° C., 3 hours; read-out: HTRF of KRASG12V-SOS1
T1 construct: purchased Cisbio 63ADK000CB18PEH
Description: Binding of test compounds to KRAS(G12V) target protein, which in turn blocks KRAS(G12V) interaction with the SOS1 protein, was measured in the absences of GTP by homogeneous time-resolved fluorescence using the KRAS-G12V/SOS1 Binding Assay Kit (Cisbio, 63ADK000CB18PEH), following the manufacturer's instructions, except as noted. 3-fold serial dilutions of each test compound were prepared ranging from 20 µM to 1.02 nM. The test compound was mixed and incubated with reaction components, incubated in a sealed plate at 4° C. for 3 hours and fluorescence was measured using a PerkinElmer Envision plate reader. The KRAS(G12V)-SOS1 IC50 values (the concentration of 50% of the maximal inhibition) were calculated using GraphPad Prism 8.0 software.

SW620 cells = experiment: Cancer cell line proliferation (CellTiter-Glo), SW620; type: cell-based; details: Homo sapiens, SW-620, SW620 colorectal adenocarcinoma, homozygous G12V, 72 hr
Description: Cell lines were cultured essentially according to ATCC recommendations. SW620 and NCIH727 cells were plated in 384-well tissue culture plates at 1,000 cells/well and incubated at 37° C./5% CO2 for 72 hr in 40 μl of media. […] Each cell line was then treated with test compounds at various concentrations with a final concentration of 0.5% DMSO/well, and then incubated at 37° C./5% CO2 for 72 hr. 40 μl of CellTiter-Glo® Reagent (Promega Corporation, Madison, WI) was added to each well and processed according manufacturer's protocol. Results were analyzed and IC50 values were calculated in GraphPad 8.0 software.

NCIH727 cells = experiment: Cancer cell line proliferation (CellTiter-Glo), NCI-H727; type: cell-based; details: Homo sapiens, 72 h, NCIH727 lung carcinoid, heterozygous G12V
How it was run: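 NCI-H727 cells (1,000/well) were grown 72 h at 37 °C/5% CO2, then exposed to compound at various concentrations (0.5% DMSO final) for a further 72 h. Viability was read by CellTiter-Glo luminescence, and IC50 values were calculated from the dose-response.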

T1 sequence (P01116 1-188 isoform P01116-2 G12V): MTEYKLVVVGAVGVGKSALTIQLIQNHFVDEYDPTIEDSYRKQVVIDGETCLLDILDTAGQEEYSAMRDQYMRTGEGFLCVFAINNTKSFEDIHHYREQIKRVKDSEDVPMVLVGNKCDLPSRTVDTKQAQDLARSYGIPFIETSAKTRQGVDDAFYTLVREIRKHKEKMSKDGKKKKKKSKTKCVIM

Structure (SMILES) | IC50 (KRAS(G12V)/SOS1) | EC50 (SW620 cells) | EC50 (NCIH727 cells)
C#Cc1c(F)ccc2cc(O)cc(-c3ncc4c(N5CC6CCC(C5)N6C(=O)[C@H]5CCN(C(=O)OC)C5)nc(OCC5(CN6CCC(F)CC6)CC5)nc4c3F)c12 [Example 36] | 0.1 to 1 µM | > 1 µM | > 1 µM
C#Cc1c(F)ccc2cc(O)cc(-c3nc(OC)c4c(N5CC6CCC(C5)N6C(=O)NCC#N)nc(OCC5(CN6CCC(F)CC6)CC5)nc4c3F)c12 [Example 37] | 0.1 to 1 µM | 0.1 to 1 µM | 0.1 to 1 µM
C#Cc1c(F)ccc2cc(O)cc(-c3nc(OC)c4c(N5CC6CCC(C5)N6C(=O)NC(C)C#N)nc(OCC5(CN6CCC(F)CC6)CC5)nc4c3F)c12 (stereo not drawn) [Example 38] | < 0.1 µM | 0.1 to 1 µM | 0.1 to 1 µM
C#Cc1c(F)ccc2cc(O)cc(-c3ncc4c(N5CC6CCC(C5)N6C(=O)CC(F)(F)F)nc(OCC5(CN6CCC(F)CC6)CC5)nc4c3F)c12 [Example 39] | 0.1 to 1 µM | > 1 µM | > 1 µM
C#Cc1c(F)ccc2cc(O)cc(-c3ncc4c(N5CC6CCC(C5)N6C(=O)OC(C)(C)C)nc(OCC5(CN6CCC(F)CC6)CC5)nc4c3F)c12 [Example 40] | 0.1 to 1 µM | > 1 µM | > 1 µM
C#Cc1c(F)ccc2cc(O)cc(-c3ncc4c(N5CC6CCC(C5)N6C(C)=O)nc(OCC5(CN6CCC(F)CC6)CC5)nc4c3F)c12 [Example 41] | 0.1 to 1 µM | > 1 µM | > 1 µM
C#Cc1c(F)ccc2cc(O)cc(-c3ncc4c(N5CC6CCC(C5)N6C(=O)OC(C)C)nc(OCC5(CN6CCC(F)CC6)CC5)nc4c3F)c12 [Example 42] | 0.1 to 1 µM | > 1 µM | > 1 µM
C#Cc1c(F)ccc2cc(O)cc(-c3ncc4c(N5CC6CCC(C5)N6C(=O)C(C)(C)C)nc(OCC5(CN6CCC(F)CC6)CC5)nc4c3F)c12 [Example 43] | 0.1 to 1 µM | > 1 µM | > 1 µM
C#Cc1c(F)ccc2cc(O)cc(-c3nc(OC)c4c(N5CC6CCC(C5)N6C(=O)C5CC5(F)F)nc(OCC5(CN6CCC(F)CC6)CC5)nc4c3F)c12 (stereo not drawn) [Example 44] | < 0.1 µM | 0.1 to 1 µM | 0.1 to 1 µM
C#Cc1c(F)ccc2cc(O)cc(-c3nc(OC)c4c(N5CC6CCC(C5)N6C(=O)C5(C(F)(F)F)CC5)nc(OCC5(CN6CCC(F)CC6)CC5)nc4c3F)c12 [Example 45] | < 0.1 µM | > 1 µM | > 1 µM
C#Cc1c(F)ccc2cc(O)cc(-c3nc(OC)c4c(N5CC6CCC(C5)N6C(=O)NC5CC5)nc(OCC5(CN6CCC(F)CC6)CC5)nc4c3F)c12 [Example 46] | < 0.1 µM | 0.1 to 1 µM | 0.1 to 1 µM
C#CCCC(=O)N1C2CCC1CN(c1nc(OCC3(CN4CCC(F)CC4)CC3)nc3c(F)c(-c4cc(O)cc5ccc(F)c(C#C)c45)ncc13)C2 [Example 47] | < 0.1 µM | > 1 µM | > 1 µM
C#Cc1c(F)ccc2cc(O)cc(-c3ncc4c(N5CC6CCC(C5)N6C(=O)NC5CCCC5)nc(OCC5(CN6CCC(F)CC6)CC5)nc4c3F)c12 [Example 48] | < 0.1 µM | > 1 µM | > 1 µM
C#Cc1c(F)ccc2cc(O)cc(-c3ncc4c(N5CC6CCC(C5)N6C(=O)NC5CCNC5)nc(OCC5(CN6CCC(F)CC6)CC5)nc4c3F)c12 (stereo not drawn) [Example 49] | < 0.1 µM | > 1 µM | > 1 µM
C#Cc1c(F)ccc2cc(O)cc(-c3nc(OC)c4c(N5CC6CCC(C5)N6C(=O)C5CC5)nc(OCC5(CN6CCC(F)CC6)CC5)nc4c3F)c12 [Example 50] | < 0.1 µM | > 1 µM | > 1 µM
C#Cc1c(F)ccc2cc(O)cc(-c3ncc4c(N5CC6CCC(C5)N6C(=O)NC5(C(F)(F)F)CC5)nc(OCC5(CN6CCC(F)CC6)CC5)nc4c3F)c12 [Example 51] | < 0.1 µM | > 1 µM | > 1 µM
C#Cc1c(F)ccc2cc(O)cc(-c3nc(OC)c4c(N5CC6CCC(C5)N6C(=O)C(C)C(F)(F)F)nc(OCC5(CN6CCC(F)CC6)CC5)nc4c3F)c12 (stereo not drawn) [Example 52] | < 0.1 µM | > 1 µM | > 1 µM
